Where a name gives a salt, the structure may show the parent alone. Read-outs that look alike come from different tables or passages of the source.
Legend:
NCI-H929 = test: Cytostatic activity on human multiple myeloma cell line NCI-H929 (WST-1); type: cell-based; settings: Homo sapiens, NCI-H929, 72 h; for inhibition at 1 µM: read-out: cytostatic rate (%) H929 (1 μmol/L); for inhibition at 10 µM: 10 μmol/L, read-out: cytostatic rate (%) H929 (10 μmol/L)
Procedure, shortened: (§1)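 Cytostatic rate is 100 minus % growth relative to DMSO-only wells (100%) and blank wells (0%), read by WST-1 absorbance at 450/690 nm after 2 h. Compound at 1 or 10 μmol/L final was applied for 72 h at 37 °C to cells seeded 24 h earlier.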

KMS-11 = test: Cytostatic activity on human multiple myeloma cell line KMS-11 (WST-1); type: cell-based; settings: Homo sapiens, KMS-11, 72 h; for inhibition at 1 µM: read-out: cytostatic rate (%) KMS-11 (1 μmol/L); for inhibition at 10 µM: 10 μmol/L, read-out: cytostatic rate (%) KMS-11 (10 μmol/L)
Procedure, shortened: as §1

IGF-1R = molecular target: T1, IGF-1R (Homo sapiens, UniProt P08069); test: IGF-1R inhibitory activity (kinase reaction, time-resolved fluoroimmunoassay); type: biochemical; settings: test compound 10 μmol/L
T1 construct: purchased Upstate Co. 14-465
Procedure, shortened: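 Compounds were tested at a single 10 μmol/L concentration. Each was incubated with recombinant IGF-1R (200 μg/L), 10 mmol/L ATP, MgCl2/MnCl2 and Na3VO4 (pH 7.5) on immobilized poly(Glu-Tyr) peptide for 30 min at 24° C. Eu-anti-phosphotyrosine time-resolved fluorescence (340/615 nm) gave relative activity against no-compound and no-enzyme wells, reported as % inhibition.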

[1] = IGF-1R active recombinant enzyme
[2] = NCI-H929 cells, test compound 1 μmol/L, WST-1
[3] = KMS-11 cells, test compound 1 μmol/L, WST-1

T1 sequence (P08069 959-1367 limits assumed): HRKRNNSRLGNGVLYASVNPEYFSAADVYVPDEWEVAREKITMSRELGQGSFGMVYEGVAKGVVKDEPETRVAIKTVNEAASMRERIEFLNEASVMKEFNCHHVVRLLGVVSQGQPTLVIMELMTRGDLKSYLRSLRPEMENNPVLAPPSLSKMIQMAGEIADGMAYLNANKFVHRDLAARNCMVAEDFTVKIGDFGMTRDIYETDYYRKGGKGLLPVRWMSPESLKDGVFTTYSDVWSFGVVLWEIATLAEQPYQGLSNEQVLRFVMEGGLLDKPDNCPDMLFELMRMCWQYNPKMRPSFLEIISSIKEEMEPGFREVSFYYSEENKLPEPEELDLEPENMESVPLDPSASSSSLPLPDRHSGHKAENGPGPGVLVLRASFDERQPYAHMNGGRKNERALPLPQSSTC

Structure (SMILES)	inhibition at 1 µM (NCI-H929; 1 μmol/L, 72 hours)	inhibition at 1 µM (KMS-11; 1 μmol/L, 72 hours)	inhibition at 10 µM (IGF-1R; [1])	inhibition at 10 µM (NCI-H929; 72 hours)	inhibition at 10 µM (KMS-11; 72 hours)	inhibition at 1 µM (NCI-H929; [2])	inhibition at 1 µM (KMS-11; [3])	inhibition at 10 µM (IGF-1R)
COCCN(C)CCCOc1cc(NC(=O)c2sccc2C)c(/C=C/c2n[nH]c3ccccc23)cc1OC [Compound 298, (E)-N-{2-[2-(1H-indazol-3-yl)vinyl]-4-methoxy-5-{3-[N-(2-methoxyethyl)methylamino]propyloxy}phenyl}-3-methylthiophene-2-carboxamide]	117%	110%	94.2%					
Cc1ccsc1C(=O)Nc1cc(CN2CCN(C(=O)CO)CC2)ccc1/C=C/c1n[nH]c2ccccc12 [Compound 248, (E)-N-{2-[2-(1H-indazol-3-yl)vinyl]-5-[4-(2-hydroxyacetyl)piperazin-1-ylmethyl]phenyl}-3-methylthiophene-2-carboxamide]	114%	113%	100%					
O=C(Nc1ccccc1/C=C/c1n[nH]c2ccccc12)c1ccc([N+](=O)[O-])cc1 [Compound 65, (E)-N-{2-[2-(1H-indazol-3-yl)vinyl]phenyl}-4-nitrobenzamide]			97.9%	109%	120%			
COCCCN1CCN(C(=O)c2ccc(/C=C/c3n[nH]c4ccccc34)c(N3C(=O)c4cccc(N)c4C3=O)c2)CC1 [Compound 309, (E)-4-amino-2-{2-[2-(1H-indazol-3-yl)vinyl]-5-[4-(3-methoxypropyl)piperazin-1-ylcarbonyl]phenyl}isoindole-1,3-dione]			97.1%			115%	113%	
C(=C\c1n[nH]c2ccccc12)/c1ccccc1OCc1ccccc1 [Compound 13, (E)-3-[2-(2-benzyloxyphenyl)vinyl]-1H-indazole]			96.9%	116%	105%			
Cc1ccsc1C(=O)Nc1cc(C(=O)N2C[C@@H](C)O[C@@H](C)C2)ccc1/C=C/c1n[nH]c2ccccc12 [Compound 223, (E)-N-{2-[2-(1H-indazol-3-yl)vinyl]-5-(cis-2,6-dimethylmorpholin-4-ylcarbonyl)phenyl}-3-methylthiophene-2-carboxamide hydrochloride]	119%	120%	101%					
O=C1c2ccccc2CN1c1ccccc1/C=C/c1n[nH]c2ccccc12 [Compound 213, (E)-2-{2-[2-(1H-indazol-3-yl)vinyl]phenyl}-2,3-dihydroisoindole-1-one]			99%	127%	121%			
O=C(Nc1ccccc1/C=C/c1n[nH]c2ccccc12)c1cc2sccc2s1 [Compound 57, (E)-N-{2-[2-(1H-indazol-3-yl)vinyl]phenyl}thieno[3,2-b]thiophene-2-carboxamide]			98.3%	117%	141%			
COc1ccc(C(=O)Nc2ccccc2/C=C/c2n[nH]c3ccccc23)cc1 [Compound 4, (E)-N-{2-[2-(1H-indazol-3-yl)vinyl]phenyl}-4-methoxybenzamide]			98.5%	114%	130%			
Nc1ccc(C(=O)Nc2ccccc2/C=C/c2n[nH]c3ccccc23)s1 [Compound 56, (E)-5-amino-N-{2-[2-(1H-indazol-3-yl)vinyl]phenyl}thiophene-2-carboxamide]			99.3%	116%	134%			
N#Cc1ccc(C(=O)Nc2ccccc2/C=C/c2n[nH]c3ccccc23)cc1 [Compound 83, (E)-4-cyano-N-{2-[2-(1H-indazol-3-yl)vinyl]phenyl}benzamide]				114%	107%			96.3%
O=C(Cc1ccccc1)Nc1ccccc1/C=C/c1n[nH]c2ccccc12 [Compound 15, (E)-N-{2-[2-(1H-indazol-3-yl)vinyl]phenyl}-2-phenylacetamide]			55.4%	93.6%	95.1%			
CCN(CCO)CCCOc1ccc(/C=C/c2n[nH]c3ccccc23)c(NC(=O)c2sccc2C)c1OC [Compound 339, (E)-N-{3-{3-[N-ethyl(2-hydroxyethyl)amino]propoxy}-6-[2-(1H-indazol-3-yl)vinyl]-2-methoxyphenyl}-3-methylthiophene-2-carboxamide]			104%			119%	118%	
O=C(Nc1ccccc1/C=C/c1n[nH]c2ccccc12)C1CCCC1 [Compound 24, (E)-N-{2-[2-(1H-indazol-3-yl)vinyl]phenyl}cyclopentanecarboxamide]			97.4%	116%	110%			
C(=C\c1n[nH]c2ccccc12)/c1ccccc1N1CCOCC1 [Compound 137, (E)-3-[2-{2-(morpholin-4-yl)phenyl]vinyl}-1H-indazole]			94.3%	114%	51.2%			
O=C(Nc1ccccc1/C=C/c1n[nH]c2ccccc12)c1ccc(Br)s1 [Compound 34, (E)-5-bromo-N-{2-[2-(1H-indazol-3-yl)vinyl]phenyl}thiophene-2-carboxamide]			99.2%	113%	116%			
COCCCN(CCO)C(=O)c1ccc(/C=C/c2n[nH]c3ccccc23)c(NC(=O)c2sccc2C)c1 [Compound 256, (E)-N-{5-[N-(2-hydroxyethyl)-N-(3-methoxypropyl)carbamoyl]-2-[2-(1H-indazol-3-yl)vinyl]phenyl}-3-methylthiophene-2-carboxamide]	122%	105%	100%					
Cn1c(C(=O)Nc2ccccc2/C=C/c2n[nH]c3ccccc23)cc2ccccc21 [Compound 55, (E)-N-{2-[2-(1H-indazol-3-yl)vinyl]phenyl}-1-methyl-1H-indole-2-carboxamide]			98.9%	115%	132%			
CN1CCN(C(=O)c2ccc(/C=C/c3n[nH]c4ccccc34)c(N3C(=O)c4cccc(N)c4C3=O)c2)CC1 [Compound 315, (E)-4-amino-2-{2-[2-(1H-indazol-3-yl)vinyl]-5-(4-methylpiperazin-1-ylcarbonyl)phenyl}isoindole-1,3-dione]			106%			113%	106%	
O=S(=O)(Nc1ccccc1/C=C/c1n[nH]c2ccccc12)c1cccs1 [Compound 60, (E)-N-{2-[2-(1H-indazol-3-yl)vinyl]phenyl}thiophene-2-sulfonamide]			77.4%	63.9%	103%			
Nc1ccc(C(=O)Nc2cc3c(cc2/C=C/c2n[nH]c4ccccc24)OCO3)s1 [Compound 132, (E)-5-amino-N-{6-[2-(1H-indazol-3-yl)vinyl]benzo[1,3]dioxol-5-yl}thiophene-2-carboxamide]				108%	112%			98%
O=C(Nc1ccccc1/C=C/c1n[nH]c2ccccc12)C1CC1 [Compound 33, (E)-N-{2-[2-(1H-indazol-3-yl)vinyl]phenyl}cyclopropanecarboxamide]			92.4%	108%	115%			
Cc1ccc(C(=O)Nc2ccccc2/C=C/c2n[nH]c3ccccc23)s1 [Compound 40, (E)-N-{2-[2-(1H-indazol-3-yl)vinyl]phenyl}-5-methylthiophene-2-carboxamide]			98.8%	125%	108%			
O=C(Nc1ccccc1/C=C/c1n[nH]c2ccccc12)c1cccnc1 [Compound 6, (E)-N-{2-[2-(1H-indazol-3-yl)vinyl]phenyl}nicotinamide]			97.8%	115%	120%			
CC(=O)N1CCN(Cc2ccc(/C=C/c3n[nH]c4ccccc34)c(NC(=O)c3sccc3C)c2)CC1 [Compound 269, (E)-N-{5-(4-acetylpiperazin-1-ylmethyl)-2-[2-(1H-indazol-3-yl)vinyl]phenyl}-3-methylthiophene-2-carboxamide]	119%	132%	101%					
Cc1ccsc1C(=O)Nc1cc(C(=O)N2CCN(C=O)CC2)ccc1/C=C/c1n[nH]c2ccccc12 [Compound 218, (E)-N-{2-[2-(1H-indazol-3-yl)vinyl]-5-(4-formylpiperazin-1-ylcarbonyl)phenyl}-3-methylthiophene-2-carboxamide hydrochloride]	112%	106%	98.6%					
O=C(Nc1ccccc1/C=C/c1n[nH]c2ccccc12)C1CCCCC1 [Compound 23, (E)-N-{2-[2-(1H-indazol-3-yl)vinyl]phenyl}cyclohexanecarboxamide]			95.4%	130%	109%			

Reference: US7605272B2, “IGF-1R inhibitor” (Kyowa Hakko Kirin Co., Ltd., priority 2005, dated 2009)
